# Where two headings read alike, the source gives them in different places.
# Test system: U2OS_Bim cells
# Experiment: Apoptosis inhibition assay (Bim-induced apoptosis, cell viability by ATP level)
# Format: cell-based
# Conditions: U2OS_Bim cells, numbering of Tables 4a/4b, read-out: EC50
# How it was run: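 Apoptosis was triggered by doxycycline (0.1 μg/mL) induction of Bim, one hour after compound addition to U2OS_Bim cells. Survival was measured after 24 h from cellular ATP (CellTiter-Glo), relative to DMSO, with zVAD at 20 μM as rescue control. Data are duplicate means, some estimated from preliminary results.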
# [1] = estimated (*Est.) / preliminary results
# [2] = estimated based on preliminary results
SMILES,EC50 [1] [nM],EC50 (means of duplicates) [nM],other results
Cc1cc(-c2cc(F)c(=O)n(Cc3ccc4c(c3)OCO4)c2)nc(S(=O)(=O)CCC(OCC2CCOC2)c2ccccc2)n1 (stereo not shown) [Compound 414],1 to 1000,,
"CS(=O)(=O)c1nc(-c2ccccc2C(=O)O)cc(C(F)(F)F)n1 [Compound 63, 2-(2-(methylsulfonyl)-6-(trifluoromethyl)pyrimidin-4-yl)benzoic acid]",,< 100000,
"COc1ccc(Cn2cc(-c3cc(C)nc([S+]([O-])CCC(OCc4ccccc4)c4ccccc4)n3)ccc2=O)cc1OC (stereo not shown) [Compound 294, 5-(2-(3-(benzyloxy)-3-phenylpropylsulfinyl)-6-methylpyrimidin-4-yl)-1-(3,4-dimethoxybenzyl)pyridin-2 (1H)-one]",,1 to 1000,
"COc1cc(Cl)c(Cn2cc(-c3cc(C(F)(F)F)nc(S(=O)(=O)CCC(=O)N4CCCCC4)n3)ccc2=O)cc1OC [Compound 154, 1-(2-chloro-4,5-dimethoxybenzyl)-5-(2-((3-oxo-3-(piperidin-1-yl)propyl)sulfonyl)-6-(trifluoromethyl)pyrimidin-4-yl)pyridin-2 (1H)-one]",,1 to 1000,
"CS(=O)(=O)c1nc(-c2ccc(=O)n(Cc3ccc(Cl)cc3)c2)cc(C(F)(F)F)n1 [Compound 106, 1-(4-chlorobenzyl)-5-(2-(methylsulfonyl)-6-(trifluoromethyl)pyrimidin-4-yl)pyridin-2 (1H)-one]",,1 to 1000,
"COc1ccc(Cn2cc(-c3cc(C(F)(F)F)nc(S(=O)(=O)CCCCO)n3)ccc2=O)cc1OC [Compound 276, 1-(3,4-dimethoxybenzyl)-5-(2-((4-hydroxybutyl)sulfonyl)-6-(trifluoromethyl)pyrimidin-4-yl)pyridin-2 (1H)-one]",,1 to 1000,
COc1ccc(Cn2cc(-c3cc(C(F)(F)F)nc(S(=O)(=O)CN(C)C)n3)ccc2=O)cc1OC [Compound 199],,,EC50 [2]: < 10000 nM
"COc1cc(Cn2cc(-c3cc(C)nc(S(=O)(=O)CCC(OCc4ccccc4F)c4ccccc4)n3)cc(F)c2=O)ccn1 (stereo not shown) [Compound 321, 3-fluoro-5-(2-(3-(2-fluorobenzyloxy)-3-phenylpropylsulfonyl)-6-methylpyrimidin-4-yl)-1-((2-methoxypyridin-4-yl)methyl)pyridin-2 (1H)-one]",,1 to 1000,
Cc1cc(-c2cc(F)c(=O)n(Cc3ccc4c(c3)OCO4)c2)nc(S(=O)(=O)CCC(OCc2ccncc2)c2ccccc2)n1 (stereo not shown) [Compound 401],1 to 1000,,
"COc1ccc(Cn2cc(-c3cc(C(F)F)nc([S+]([O-])CCC(OCc4ccccc4)c4ccccc4)n3)ccc2=O)cc1OC (stereo not shown) [Compound 277, 5-(2-((3-(benzyloxy)-3-phenylpropyl)sulfinyl)-6-(difluoromethyl)pyrimidin-4-yl)-1-(3,4-dimethoxybenzyl)pyridin-2 (1H)-one]",,1 to 1000,
Cc1cc(-c2cc(F)c(=O)n(Cc3ccc4c(c3)OCO4)c2)nc(S(=O)(=O)CCC(OCc2cccn2C)c2ccccc2)n1 (stereo not shown) [Compound 403],1 to 1000,,
"CNS(=O)(=O)CCC[S+]([O-])c1nc(-c2ccc(=O)n(Cc3ccc(OC)c(OC)c3)c2)cc(C(F)F)n1 (stereo not shown) [Compound 179, 3-((4-(difluoromethyl)-6-(1-(3,4-dimethoxybenzyl)-6-oxo-1,6-dihydropyridin-3-yl)pyrimidin-2-yl)sulfinyl)-N-methylpropane-1-sulfonamide]",,< 100000,
Cc1cc(-c2cc(F)c(=O)n(Cc3ccc4c(c3)OCO4)c2)nc(S(=O)(=O)CCC(OCc2ccccc2F)c2ccc3ccn(C)c3c2)n1 (stereo not shown) [Compound 392],1 to 1000,,
"COc1cccc(S(=O)(=O)c2nc(-c3ccc(=O)n(Cc4ccc(OC)c(OC)c4)c3)cc(C(F)F)n2)c1 [Compound 174, 5-(6-(difluoromethyl)-2-((3-methoxyphenyl)sulfonyl)pyrimidin-4-yl)-1-(3,4-dimethoxybenzyl)pyridin-2 (1H)-one]",,1 to 1000,
Cc1cc(-c2cc(F)c(=O)n(Cc3ccc4c(c3)OCO4)c2)nc(S(=O)(=O)CCC(OCc2cncn2C)c2ccccc2)n1 (stereo not shown) [Compound 404],1 to 1000,,
"CS(=O)(=O)c1nc(-c2ccc(=O)n(CCN=[N+]=[N-])c2)cc(C(F)(F)F)n1 [Compound 102, 1-(2-azidoethyl)-5-(2-(methylsulfonyl)-6-(trifluoromethyl)pyrimidin-4-yl) pyridin-2 (1H)-one]",,1000 to 10000,
Cc1cc(-c2cc(F)c(=O)n(Cc3ccc4c(c3)OCO4)c2)nc(S(=O)(=O)CCC(OCc2ccccc2F)C(C)(C)C)n1 (stereo not shown) [Compound 400],1 to 1000,,
Cc1cc(-c2cc(F)c(=O)n(Cc3ccc4[nH]c(=O)[nH]c4c3)c2)nc(S(=O)(=O)CCC(OCc2ccccc2F)c2ccccc2)n1 (stereo not shown) [Compound 341],1 to 1000,,
"COc1ccc(Cn2cc(-c3cc(CF)nc(S(C)(=O)=O)n3)ccc2=O)cc1OC [Compound 161, 5-(6-(fluoromethyl)-2-(methylsulfonyl)pyrimidin-4-yl)-1-(3,4-dimethoxybenzyl)pyridin-2 (1H)-one]",,1 to 1000,
Cc1cc(-c2cc(F)c(=O)n(Cc3ccc4c(c3)OCO4)c2)nc(S(=O)(=O)CCCC(=O)NC23CC4CC(CC(C4)C2)C3)n1 [Compound 364],1 to 1000,,

SMILES,EC50 [1] [nM],EC50 (means of duplicates) [nM],other results
"C#CCn1cc(-c2cc(C(F)(F)F)nc(S(C)(=O)=O)n2)ccc1=O [Compound 100, 5-(2-(methylsulfonyl)-6-(trifluoromethyl)pyrimidin-4-yl)-1-(prop-2-yn-1-yl) pyridin-2 (1H)-one]",,1 to 1000,
Cc1cc(-c2cc(F)c(=O)n(Cc3ccc4nnn(C)c4c3)c2)nc(S(=O)(=O)CCCN(c2ccccc2)C(C)(C)C)n1 [Compound 380],1 to 1000,,
"C[S+]([O-])c1nc(-c2ccc[nH]c2=O)cc(C(F)(F)F)n1 (stereo not shown) [Compound 81, 3-(2-(methylsulfinyl)-6-(trifluoromethyl)pyrimidin-4-yl)pyridin-2 (1H)-one]",,< 100000,
C[S+]([O-])c1nc(-c2ccc(=O)n(Cc3ccc4c(c3)OCO4)c2)cc(C(F)(F)F)n1 (stereo not shown) [Compound 223],,,EC50 [2]: < 10000 nM
"COc1cccc([S+]([O-])c2nc(-c3ccc(=O)n(Cc4ccc(OC)c(OC)c4)c3)cc(C(F)F)n2)c1 (stereo not shown) [Compound 175, 5-(6-(difluoromethyl)-2-((3-methoxyphenyl)sulfinyl)pyrimidin-4-yl)-1-(3,4-dimethoxybenzyl)pyridin-2 (1H)-one]",,1 to 1000,
"COc1ccc(Cn2cc(-c3cc(C(F)F)nc(S(=O)(=O)CCC(Cl)c4ccccc4)n3)ccc2=O)cc1OC (stereo not shown) [Compound 279, 5-(2-((3-chloro-3-phenylpropyl)sulfonyl)-6-(difluoromethyl)pyrimidin-4-yl)-1-(3,4-dimethoxybenzyl)pyridin-2 (1H)-one]",,1 to 1000,
"COc1ccc(Cn2cc(-c3cc(-c4ccccc4F)nc(S(C)(=O)=O)n3)ccc2=O)cc1OC [Compound 296, 1-(3,4-dimethoxybenzyl)-5-(6-(2-fluorophenyl)-2-(methylsulfonyl)pyrimidin-4-yl)pyridin-2 (1H)-one]",,1000 to 10000,
Cc1cc(-c2cc(F)c(=O)n(Cc3ccn4ccnc4c3)c2)nc(S(=O)(=O)CCC(OCc2ccccc2F)c2ccccc2)n1 (stereo not shown) [Compound 340],1 to 1000,,
COc1ccc(Cn2cc(-c3cc(-n4cccc4)nc(S(C)(=O)=O)n3)ccc2=O)cc1OC [Compound 219],,,EC50 [2]: < 10000 nM
"COc1ccc(Cn2cccc2-c2cc(C(F)(F)F)nc([S+](C)[O-])n2)cc1OC (stereo not shown) [Compound 86, 4-(1-(3,4-dimethoxybenzyl)-1H-pyrrol-2-yl)-2-(methylsulfinyl)-6-(trifluoromethyl)pyrimidine]",,< 100000,
"COc1ccc(Cn2cc(-c3cc(=O)n(C)c(S(C)(=O)=O)n3)ccc2=O)cc1OC [Compound 275, 6-(1-(3,4-dimethoxybenzyl)-6-oxo-1,6-dihydropyridin-3-yl)-3-methyl-2-(methylsulfonyl)pyrimidin-4 (3H)-one]",,< 100000,
Cc1cc(-c2cc(F)c(=O)n(Cc3ccc4nnn(C)c4c3)c2)nc(S(=O)(=O)CCCC(=O)NC23CC4CC(CC(C4)C2)C3)n1 [Compound 365],1 to 1000,,
"Cc1cc(-c2cc(F)c(=O)n(Cc3ccc4c(cnn4C)c3)c2)nc(S(=O)(=O)CCC(OCc2ccccc2F)c2ccccc2)n1 (stereo not shown) [Compound 327, 3-fluoro-5-(2-(3-(2-fluorobenzyloxy)-3-phenylpropylsulfonyl)-6-methylpyrimidin-4-yl)-1-((1-methyl-1H-indazol-5-yl)methyl)pyridin-2 (1H)-one]",,1 to 1000,
"C[S+]([O-])c1nc(-c2ccc(=O)n(Cc3ccc4c(c3Br)OCO4)c2)cc(C(F)(F)F)n1 (stereo not shown) [Compound 138, 1-((4-bromobenzo[d][1,3]dioxol-5-yl)methyl)-5-(2-(methylsulfinyl)-6-(trifluoromethyl)pyrimidin-4-yl)pyridin-2 (1H)-one]",,1 to 1000,
"C[S+]([O-])c1nc(-c2ccn(Cc3cccc(C#N)c3)c2)cc(C(F)(F)F)n1 (stereo not shown) [Compound 98, 3-((3-(2-(methylsulfinyl)-6-(trifluoromethyl)pyrimidin-4-yl)-1H-pyrrol-1-yl)methyl)benzonitrile]",,< 100000,
"CS(=O)(=O)c1nc(-c2ccc[nH]2)cc(C(F)(F)F)n1 [Compound 84, 2-(methylsulfonyl)-4-(1H-pyrrol-2-yl)-6-(trifluoromethyl)pyrimidine]",,1000 to 10000,
"COc1ccc(Cn2cc(-c3cc(C(F)(F)F)nc([S+]([O-])CCCC(N)=O)n3)ccc2=O)cc1OC (stereo not shown) [Compound 159, 4-((4-(1-(3,4-dimethoxybenzyl)-6-oxo-1,6-dihydropyridin-3-yl)-6-(trifluoromethyl)pyrimidin-2-yl)sulfinyl)butanamide]",,< 100000,
Cc1cc(-c2cc(F)c(=O)n(Cc3ccc4c(c3)OCO4)c2)nc(S(=O)(=O)CCCC(=O)N(c2ccccc2)C2CC2)n1 [Compound 372],1 to 1000,,
"COc1ccc(Cn2cc(-c3cc(C)nc(S(C)(=O)=O)n3)cc(F)c2=O)cc1OC [Compound 324, 1-(3,4-dimethoxybenzyl)-3-fluoro-5-(6-methyl-2-(methylsulfonyl)pyrimidin-4-yl)pyridin-2 (1H)-one]",,1000 to 10000,
COc1ccc(Cn2cc(-c3cc(-c4ncco4)nc(S(C)(=O)=O)n3)ccc2=O)cc1OC [Compound 211],,,EC50 [2]: < 10000 nM
